Assay results taken from patent publication US20200061038A1, “THERAPEUTIC AGENT FOR FIBROSIS AND INHIBITOR OF NUCLEAR TRANSLOCATION OF PHOSPHORYLATED SMAD” (NATIONAL UNIVERSITY CORPORATION CHIBA UNIVERSITY, priority 2016, published 2020).

Assays:
Smad2 [1] = experiment: Smad2 phosphorylation (western blot) in HFL1 cells; assay type: cell-based, human; details: for phosphorylation level of Smad2 (ROCK pathway): Y27632 20 μM, Cytochalasin B 2 μM; for phosphorylation level of Smad2 (ROCK pathway) / phosphorylation level of Smad2 due to TGFβ1 treatment (PKC inhibitors): TGFβ1 10 ng/mL; for phosphorylation level of Smad2 due to TGFβ1 treatment (PKC inhibitors): GF109203X 10 μM, Rottlerin 1 μM
Description: HFL1 cells were inoculated onto a six-well plate by 1.0×10^5 cells/well, and then cultured in 2.0 mL of DMEM containing 10% FBS, to achieve 70% confluence. The cells were washed using Hanks' balanced salt solution (HBSS) containing 0.1% bovine serum albumin (BSA) (4.2 mM NaHCO3, 137 mM NaCl, 5.36 mM KCl, 0.4 mM MgSO4.7H2O, 0.34 mM Na2HPO4.12H2O, 5.55 mM glucose, 0.44 mM KH2PO4, 0.72 mM CaCl2.H2O, pH=7.4), and then cultured in a DMEM containing 0.1% BSA for 48 hours without serum.
Thereafter, the medium was replaced by a DMEM containing 0.1% BSA, and stimulation was given for a specified period using each reagent (each inhibitor was applied 30 minutes before the stimulant), after which the cells were collected on ice using 100 μL of RIPA buffer (150 mM NaCl, 50 mM Tris-HCl, 5 mM EDTA, 5 mM NaF, 10 mM sodium pyrophosphate dibasic, 1% Nonidet P-40, 0.1% sodium dodecyl sulfate, 0.5% sodium deoxycholate, pH 8.0) containing 10 μg/mL aprotinin, 10 μg/mL leupeptin, and phenyl methyl sulfonyl fluoride (PMSF) as a protease inhibitor.
The cells were crushed according to the vortex method, centrifuged under the conditions of 15000 rpm and 4° C. for 30 minutes, and the supernatant was taken as a sample. Quantitative determination of protein was performed according to the Bradford method, and a specified amount of protein was separated by SDS-polyacrylic amide gel electrophoresis. The protein was transferred onto a polyvinylidene difluoride (PVDF) film, blocked for 1 hour at room temperature, with a primary antibody applied overnight at 4° C., and a secondary antibody applied for 1 hour at room temperature.
Thereafter, the PVDF film was soaked in an ECL solution and fluorometric detection was performed using an image capture/analysis system (ChemiDocMP System manufactured by Bio-Rad). The detected bands were converted to numerical values using image processing software (ImageJ).

αSMA = αSMA expression (western blot) in TGFβ1-stimulated HFL1 cells; assay type: cell-based, human; details: for increase in the αSMA expression level due to TGFβ1 (PKC inhibitors): GF109203X 10 μM, Rottlerin 1 μM, GO06976 0.5 μM and 1.0 μM, 30 minutes before TGFβ1 10 ng/mL; for αSMA expression level recovered, relative to the level when TGFβ1 alone was applied: used together with PPMP (3 μM), lactosylceramide 10 μM
Description: Human pulmonary fibroblast (HFL1) (ATCC CCL-153) cells were cultured under the conditions of 95% air-5% CO2 and 37° C., using a Dulbecco's Modified Eagle Medium (DMEM) containing 10% fetal bovine serum (FBS), 100 μg/mL streptomycin, and 66.7 μg/mL penicillin.
How an increase in lactosylceramide synthesis activity due to TGFβ1 affects the fibrosing of tissues was examined based on the expression level of αSMA, which is a fibrosing marker protein.

Smad2 [2] = experiment: Smad2 nuclear localization (immunofluorescent staining, confocal) in HFL1 cells; assay type: cell-based, human; details: TGFβ1 10 ng/mL; for nuclear localization of Smad2 due to TGFβ1 (PKC inhibitors): GF109203X 10 μM, Rottlerin 1 μM, GO06976 1 μM
Description: For immunostaining of Smad and phosphorylated Smad, ribonuclease A (RNase, Worthington Biochemical) (200 μg/mL, room temperature, 30 minutes) and propidium iodide (PI, Cayman Chemical) (20 μg/mL, room temperature, 30 minutes) were applied to stain the nucleus, and the stained images were observed using a confocal microscope (FV500 manufactured by Olympus).
When localization of Smad2/3 was observed, on the other hand, Smad2/3 accumulated in the nucleus in 3 hours after the single stimulation of TGFβ1 (10 ng/mL).

PKCδ = experiment: Translocation of PKCδ into the cellular membrane in HFL1 cells; assay type: cell-based, human
Description: HFL1 cells were inoculated onto a 3.5-cm glass-bottom dish by 1.0×10^4 cells/dish, and then cultured in 2.0 mL of DMEM containing 10% FBS, to achieve 70% confluence. The cells were washed in HBSS containing 0.1% BSA, and then cultured in DMEM containing 0.1% BSA for 48 hours without serum.
Thereafter, the medium was replaced by a DMEM containing 0.1% BSA, and stimulation was given for a specified period using each reagent (each inhibitor was applied 30 minutes before the stimulant), after which each sample was fixed with 4% paraformaldehyde (PFA) at 4° C. for 15 minutes. Thereafter, as deemed appropriate, the sample was permeabilized (0.3% saponin, room temperature, 1 hour) and blocked (3% BSA, room temperature, 1 hour), with a primary antibody applied overnight at 4° C., and a secondary antibody applied for 1 hour at room temperature. For immunostaining of Smad and phosphorylated Smad, ribonuclease A (RNase, Worthington Biochemical) (200 μg/mL, room temperature, 30 minutes) and propidium iodide (PI, Cayman Chemical) (20 μg/mL, room temperature, 30 minutes) were applied to stain the nucleus, and the stained images were observed using a confocal microscope (FV500 manufactured by Olympus).
In general, activation of PKC is observed in the form of its translocation into the cellular membrane; accordingly, involvement of lactosylceramide was examined using the translocation of PKCδ into the cellular membrane as an indicator.

[3] = tested on: idiopathic pulmonary fibrosis; details: patients suffering from idiopathic pulmonary fibrosis; Non-patent Literature 2; cited from earlier work

## C=C1[C@@H](C)[C@H]2[C@H](Cc3ccccc3)NC(=O)[C@]23OC(=O)/C=C/[C@H](O)CCC[C@@H](C)C/C=C/[C@H]3[C@@H]1O [Cytochalasin B]
Smad2 [1]
  phosphorylation level of Smad2 (ROCK pathway): the phosphorylation level did not change

## CN(C)CCCn1cc(C2=C(c3c[nH]c4ccccc34)C(=O)NC2=O)c2ccccc21 [GF109203X]
αSMA
  increase in the αSMA expression level due to TGFβ1 (PKC inhibitors): suppressed significantly
Smad2 [2]
  nuclear localization of Smad2 due to TGFβ1 (PKC inhibitors): suppressed significantly
Smad2 [1]
  phosphorylation level of Smad2 due to TGFβ1 treatment (PKC inhibitors): no change was observed

## Cn1c2ccccc2c2c3c(c4c5ccccc5n(CCC#N)c4c21)CNC3=O [GO06976]
αSMA
  increase in the αSMA expression level due to TGFβ1 (PKC inhibitors): did not suppress the increase in the αSMA expression level
Smad2 [2]
  nuclear localization of Smad2 due to TGFβ1 (PKC inhibitors): did not change

## CCCCCCCCCCCCCC(=O)O[C@@H]1[C@@H](C)[C@@]2(O)[C@@H](C=C(CO)C[C@]3(O)C(=O)C(C)=C[C@@H]23)[C@@H]2C(C)(C)[C@]12OC(C)=O [PMA, phorbol myristate acetate]
αSMA; PMA 100 nM overnight treatment, TGFβ1 10 ng/mL
  increase in the αSMA expression level due to TGFβ1 (PKC down-regulation): suppressed the increase in the αSMA expression level

## CC(=O)c1c(O)c(C)c(O)c(Cc2c(O)c3c(c(C(=O)/C=C/c4ccccc4)c2O)OC(C)(C)C=C3)c1O [Rottlerin]
PKCδ; PPMP 3 μM, Rottlerin 1 μM applied beforehand, two hours after TGFβ1 10 ng/mL
  translocation of PKCδ into the cellular membrane due to TGFβ1: translocation of PKCδ into the cellular membrane was suppressed
αSMA
  increase in the αSMA expression level due to TGFβ1 (PKC inhibitors): suppressed significantly
Smad2 [2]
  nuclear localization of Smad2 due to TGFβ1 (PKC inhibitors): suppressed significantly
Smad2 [1]
  phosphorylation level of Smad2 due to TGFβ1 treatment (PKC inhibitors): no change was observed

## C[C@@H](N)[C@H]1CC[C@H](C(=O)Nc2ccncc2)CC1 [Y27632]
Smad2 [1]
  phosphorylation level of Smad2 (ROCK pathway): the phosphorylation level did not change

## COC(=O)c1ccc2c(c1)NC(=O)/C2=C(\Nc1ccc(N(C)C(=O)CN2CCN(C)CC2)cc1)c1ccccc1 [nintedanib]
[3]
  forced vital capacities of patients: improve the forced vital capacities
  survival periods of patients: cannot extend the survival periods

## Cc1ccc(=O)n(-c2ccccc2)c1 [pirfenidone]
[3]
  forced vital capacities of patients: improve the forced vital capacities
  survival periods of patients: cannot extend the survival periods

## glucosylceramide
αSMA; TGFβ1 10 ng/mL
  αSMA expression level recovered, relative to the level when TGFβ1 alone was applied: approx. 80%

## lactosylceramide
PKCδ; lactosylceramide 10 μM alone
  time the localization of PKCδ on the cellular membrane was sustained: at least 30 minutes
PKCδ; lactosylceramide 10 μM alone, five minutes after the stimulation
  translocation of PKCδ into the cellular membrane by the substance alone: translocation of PKCδ into the cellular membrane was observed
αSMA; lactosylceramide 10 μM in combined use with PPMP or NB-DNJ, TGFβ1 10 ng/mL
  recovery of the αSMA expression level suppression action: led to a recovery of the αSMA expression level suppression action
αSMA; TGFβ1 10 ng/mL
  αSMA expression level recovered, relative to the level when TGFβ1 alone was applied: approx. 95%
Smad2 [2]; lactosylceramide 10 μM combined with PPMP
  accumulation of Smad2 in the nucleus, combined use with PPMP: led to a recovery of the suppression action due to PPMP, and Smad2 accumulated in the nucleus
Smad2 [1]; lactosylceramide 10 μM alone, no TGFβ1
  phosphorylation of Smad2 by the substance alone: did not cause phosphorylation of Smad2
